Laboratory results reported in ChEMBL document CHEMBL3988442, “University of Dundee, Small-Polar-MMV Screening Library” (2021).

Assays:
[1] = microbe, parasite or virus in culture; conditions: Mycobacterium tuberculosis, 72 h, read-out: pIC50 (converted)
[2] = microbe, parasite or virus in culture; conditions: Mycobacterium tuberculosis, 96 h, read-out: pIC50 (converted)

Structure (SMILES) | IC50 [1] [µM] | IC50 [2] [µM]
CN(C)S(=O)(=O)NC(c1ccccc1)c1ccccc1 | 195 | > 501
NC(CN1CCOCC1)c1ccccc1 (stereo not given) | > 501 | > 501
Cc1cccc2[nH]cc(CCN)c12 | 124 | 229
COc1ccc(CCN)c(OC)c1OC | 36.1 | 55.6
CN(Cc1ccco1)C(=O)c1cccc(C#N)c1 | > 501 | > 501
CCOCCC(=O)N(C)Cc1cc(C(C)C)no1 | 169 | 372
O=C(CNC1CC1)NCCc1ccc(F)cc1 | 31.5 | 63.6
CNS(=O)(=O)c1ccc(C(=O)Nc2ccc(F)cc2)o1 | > 501 | > 501
COCCN(C)S(=O)(=O)c1cc(F)c(C)cc1F | 465 | > 501
COc1ccc(Br)c(S(=O)(=O)N(C)C)c1 | 358 | > 501
O=C1CCC(Nc2nc(-c3ccccc3)ns2)CN1 (stereo not given) | > 501 | 286
COc1cccc(S(=O)(=O)CCN(C)CCO)c1 | 109 | 352
CC(NCc1cccc2c1OCCO2)c1ccncc1 (stereo not given) | 99.1 | 153
O=C(Nc1cccc(CO)n1)Nc1ccccc1Cl | 246 | > 501
Nc1cc(-c2cccnc2)on1 | 284 | > 501
COc1cccc(-c2ccc(CNS(N)(=O)=O)cc2)c1 | 159 | 283
Cc1csc(NC(=O)CNC(=O)c2cccs2)n1 | 185 | > 501
COc1cc(CN)cc(Br)c1OC | 78.5 | > 501
Nc1nccnc1C(=O)NCc1ccccc1 | 294 | > 501
CCc1nc(C)c(C(=O)NCC2CCS(=O)(=O)CC2)o1 | > 501 | > 501
Cc1ncsc1C(=O)NC1CCCCNC1=O (stereo not given) | > 501 | > 501
CN(C1CCCCC1)S(=O)(=O)NC1CCCCNC1=O (stereo not given) | > 501 | > 501

Structure (SMILES) | IC50 [1] [µM] | IC50 [2] [µM]
Cc1cnc(C(=O)NCCCc2ccccn2)cn1 | 111 | > 501
C=C(Br)CN1CCN(CCNC(=O)C2CCC2)CC1 | 278 | > 501
CNC(=O)C(C)(C)Oc1cccc(Cl)c1 | > 501 | > 501
NS(=O)(=O)c1cccc2c1CCCN2Cc1nccs1 | > 501 | > 501
NC(=O)CSc1nc(-c2ccc(Br)cc2)c[nH]1 | 160 | 260
COc1cccc(-n2nnc(C(=O)NC3CC3)c2C)c1 | 232 | 209
CC(NC(=O)CNc1ccccc1F)c1ccco1 (stereo not given) | 51.7 | 4.24
COc1cccc(F)c1C(C)NC(=O)c1nccn1C (stereo not given) | 322 | 252
COc1cc(C(=O)NC[C@@H](O)c2ccc(C)cc2)on1 | 488 | > 501
NC1CCN(c2ncccc2F)C1 (stereo not given) | 462 | > 501
CCc1nnc(CN2CCOC3(CCCC3)C2)o1 | > 501 | > 501
CC(C)(C)OC(=O)NC1CC2(CNC2)C1 | 244 | > 501
NCc1nc(-c2ccc(F)cc2)c[nH]1 | 222 | > 501
OC1CCN(Cc2cc(Cl)c3c(c2)OCCO3)CC1 | > 501 | > 501
COc1ccc(NC(=O)COc2ccccc2F)cn1 | 213 | > 501
CCNC(=O)NCC(C)Oc1cccc(OC)c1 (stereo not given) | 254 | 301
CCCNC(=O)CNc1cc(F)c(OC)c(F)c1 | 166 | 326
CC(=O)NCCCNCc1cccc(C#N)c1 | > 501 | > 501
NCc1nc(C(F)F)no1 | 289 | > 501
CC(=O)NCc1ccc(C(=O)CSc2ccccn2)s1 | > 501 | > 501
CSCc1ccc(C(=O)N2CC(CC(N)=O)C2)cc1 | > 501 | > 501
CCCS(=O)(=O)NCC(O)Cc1ccccc1 (stereo not given) | 136 | 197

Structure (SMILES) | IC50 [1] [µM] | IC50 [2] [µM]
NCc1noc(-c2cccc(Br)c2)n1 | 127 | > 501
CNS(=O)(=O)CC1CCCN1c1ncc(Br)cn1 (stereo not given) | 289 | > 501
C[C@@H](CO)Nc1ncc(Cl)cc1Br | 291 | > 501
CCc1cc(CNC(=O)c2ccc(F)c(F)c2)[nH]n1 | 175 | 102
COc1c(Cl)cc(NC(=O)C2COCCN2)cc1Cl (stereo not given) | 200 | > 501
CN(C)S(=O)(=O)NCC(O)c1ccc(Cl)c(F)c1 (stereo not given) | 131 | > 501
CCc1ccc(C(=O)NC(C)c2cccnc2)o1 (stereo not given) | > 501 | > 501
COCCCNC(=O)C1=Cc2ccccc2OC1 | 119 | 115
CCCc1ccc(S(=O)(=O)N2CCNCC2)cc1 | 299 | > 501
CN(CCC(O)c1ccccc1)C(=O)c1cc(Cl)c[nH]1 (stereo not given) | 237 | 485
Cc1ccc(C(N)CN2CCOCC2)cc1 (stereo not given) | 448 | > 501
COc1ccc(CNC(=O)CCC2CCCO2)cn1 (stereo not given) | 91.5 | > 501
CCN(CC1CCOC1)C(=O)c1cc(I)c[nH]1 (stereo not given) | 212 | > 501
NCC(O)c1ccc(Cl)s1 (stereo not given) | 241 | 290
CCN1C[C@H](NC(=O)c2ccc(Cl)s2)[C@@H](OC)C1 | 137 | > 501
OCCOCCNCC(O)COCc1ccccc1Cl (stereo not given) | > 501 | > 501
Cc1ccc(C(=O)NCc2ccnc(N(C)C)c2)s1 | 273 | > 501
Cc1cc2c(cc1S(=O)(=O)N1CCCC(N)C1)OCO2 (stereo not given) | 261 | > 501
CC(C)C1CN(C(=O)CCc2ccccn2)CCS1 (stereo not given) | 79.8 | 95.5
CS(=O)(=O)N1CCC(COCc2ccccc2)C1 (stereo not given) | 301 | 165
Cc1cc(C(=O)NCc2ccc(F)cc2)[nH]n1 | 28 | 132
Cn1c(SCCCO)nnc1-c1ccccc1F | 275 | 279

Structure (SMILES) | IC50 [1] [µM] | IC50 [2] [µM]
CN1N=C(C(=O)NCc2ccc(Cl)cc2)CCC1=O | 26.9 | 38.8
CCn1nnnc1SCc1cc(C#N)ccc1F | 42.7 | 87.5
Cc1nc(CNC(=O)CC2=CCCCC2)no1 | > 501 | > 501
Cc1ccc2oc(N3CCNCC3)nc2c1 | 190 | > 501
CSc1cccc(N(C)C(=O)C(N)c2ccccc2)c1 (stereo not given) | 233 | > 501
COc1ccc(CCN)cc1F | 304 | 247
CCN(CC)S(=O)(=O)CC(=O)Nc1ccc(F)c(C)c1 | 252 | 265
COC(=O)c1ccc(NCC(=O)NC(N)=O)cc1 | 85.4 | 58.3
CC(Sc1nnc[nH]1)C(=O)Nc1ccc(C#N)cc1 (stereo not given) | > 501 | > 501
Nc1nnc(SCC(=O)NCCc2cccc(Cl)c2)s1 | 287 | > 501
COc1ccc(NC(=O)c2ccc(S(N)(=O)=O)o2)cc1 | > 501 | > 501
CC(C)OCCS(=O)(=O)N(C)Cc1ccco1 | 110 | 104
CC(c1nc(-c2ccccn2)no1)N1CCSCC1 (stereo not given) | 86.8 | 115
O=C(NC1CCc2ccc(F)cc21)c1c[nH]nn1 (stereo not given) | > 501 | 399
Cc1nc(-c2c[nH]c(C(=O)N3CCCC3)c2)cs1 | 241 | 427
O=C(NCC(O)c1ccc(Cl)cc1)Nc1ccccn1 (stereo not given) | 106 | > 501
CCCNC(=O)c1cc(Br)c[nH]1 | > 501 | > 501
CN(C)CCOc1ccccc1CN | > 501 | > 501
CCCOc1cccc(NC(=O)C(C)n2cncn2)c1 (stereo not given) | 370 | 331
NC(=O)c1ccsc1NC(=O)CCN1CCCCC1 | 495 | > 501
Nc1cc(-c2ccc(I)cc2)nn1CCO | > 501 | > 501
CC(C)NC(=O)NCC1(N2CCOCC2)CCSC1 (stereo not given) | > 501 | > 501

Structure (SMILES) | IC50 [1] [µM] | IC50 [2] [µM]
CCC1(CO)CCCN(CCn2cc(Cl)cn2)C1 (stereo not given) | 138 | 144
CCOc1ncccc1CNC(=O)c1[nH]ncc1Br | > 501 | > 501
CCCNC(=O)c1ccc2c(c1)NC(=O)C(C)S2 (stereo not given) | 406 | > 501
O=C(NC1=NCCS1)c1sccc1C1CC1 | 232 | 398
CC1CC(=O)NCCN1 (stereo not given) | > 501 | > 501
NCc1cnn(-c2ccc(Br)cc2)c1 | 147 | 196
COCCNc1ccc(C#N)cc1 | > 501 | 280
CC(N)c1nc(-c2ccc3c(c2)OCO3)c[nH]1 (stereo not given) | > 501 | > 501
CCOC(=O)c1ccc(N2CCC(CCO)CC2)nc1 | 84 | 198
CN(C)c1nc(-c2ccc3c(c2)CCC(=O)N3)cs1 | 120 | 201
CN(C)c1ncccc1CNS(=O)(=O)c1ccccc1 | > 501 | > 501
CN(C)C(=O)CCN1CCCC1c1ccsc1 (stereo not given) | 196 | > 501
O=C(NC1CCCCC1)c1ccc(CO)cc1 | 161 | 143
CN(Cc1cccc(C(N)=O)c1)C(=O)c1occc1Br | > 501 | > 501
NCc1ccc(OC2CCCCC2)nc1 | > 501 | > 501
NCc1ccncc1OCc1ccccc1 | 134 | > 501
O=C1c2ccccc2OCC1CN1CCOCC1 (stereo not given) | 266 | > 501
NC1CCN(c2ncccc2Cl)C1 (stereo not given) | 135 | 217
COCC(C)Nc1cccc(F)c1C#N (stereo not given) | > 501 | > 501
CC(NC(=O)CSc1nnnn1C1CC1)c1cccs1 (stereo not given) | 433 | > 501
CN(Cc1ccccc1Br)C(=O)c1nccnc1N | > 501 | > 501
CC(C)NC(=O)CSc1nc(C=Cc2cccs2)n[nH]1 | 122 | 103
